Experimental findings from PubChem BioAssay (NCI) are described below.

Some test systems named below: 786-0 renal; A549 NSCLC; RXF 393 renal; A498 renal; SF-295 CNS; HL-60(TB) leukemia; SNB-19 CNS; HCT-15 colon; MCF7 breast; HCC-2998 colon.
What all share (experiment): DTP human tumour cell line panel, 48 h

“And” between values parts separate entries of the source, which are not always exact repeats. Equal entries are not always repeated.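 Test compounds were applied to cells in 96-well plates for 48 hours at 5 doses. GI50 marks 50% less growth. TGI denotes the concentration required for complete inhibition of growth.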

Take `COc1ccc(-c2[nH]nc(N)c2-c2cc(OC)c3c(c2)OCO3)cc1`: the GI50 (usually the concentration that inhibits growth by half) is 7.82 µM in the assay on 786-0 renal; 4.73 µM in the assay with A549 NSCLC; 3.63 µM in the assay with RXF 393 renal; 1.88 µM with A498 renal; 3.92 µM in the assay on SF-295 CNS; 2.89 µM with HL-60(TB) leukemia. In addition, the GI50 is 5.23 µM with SNB-19 CNS, 3.69 µM in the assay with HCT-15 colon, 3.83 µM in the assay with MCF7 breast and 5.97 µM in the assay on HCC-2998 colon. In addition, the TGI (usually the concentration giving total growth inhibition) was greater than 100 µM with 786-0 renal; greater than 100 µM with A549 NSCLC; 16.1 µM in the assay on RXF 393 renal; 6.75 µM in the assay on A498 renal; 32.4 µM in the assay with SF-295 CNS; 10.3 µM in the assay with HL-60(TB) leukemia. For the same compound, the TGI is greater than 100 µM in the assay on SNB-19 CNS, greater than 100 µM in the assay with HCT-15 colon, greater than 100 µM in the assay on MCF7 breast and 31.4 µM with HCC-2998 colon.
With `O=C(Nc1cccc(-n2cc(-c3ccncc3)c(-c3ccc(O)c(Cl)c3)n2)c1)c1cc(C(F)(F)F)cc(C(F)(F)F)c1`, the GI50 in the assay on 786-0 renal is 3.93 µM; in the assay with A549 NSCLC it was 2.41 µM; with RXF 393 renal, 1.25 µM; in the assay on A498 renal, 9.2 µM; with SF-295 CNS, 2.14 µM; in the assay on HL-60(TB) leukemia, 9.4 µM. In addition, the GI50 with SNB-19 CNS was 12.8 µM; in the assay on HCT-15 colon, 2.39 µM; in the assay on MCF7 breast it was 2.17 µM; with HCC-2998 colon it was 3.06 µM. Also, the concentration for total growth inhibition (TGI) was 18.3 µM in the assay with 786-0 renal; greater than 50 µM in the assay on A549 NSCLC; 9.1 µM with RXF 393 renal; greater than 50 µM with A498 renal; 34.2 µM with SF-295 CNS; 27.4 µM in the assay with HL-60(TB) leukemia. Besides, the TGI in the assay with SNB-19 CNS, with HCT-15 colon, in the assay on MCF7 breast and in the assay on HCC-2998 colon was greater than 50 µM in each case.
In the case of `COc1ccc2nc3cc([N+](=O)[O-])ccc3c(NNc3ccccc3)c2c1`, the TGI in the assay on 786-0 renal is 40.4 µM and 44 µM; in the assay with A549 NSCLC, 37.8 µM and > 100 µM; in the assay with RXF 393 renal, 27.6 µM and > 100 µM; in the assay on A498 renal, 13.2 µM; in the assay on SF-295 CNS, 25.2 µM and > 100 µM; in the assay with HL-60(TB) leukemia, 59.8 µM and > 84 µM. For the same compound, the TGI was 57.1 µM and > 100 µM in the assay on SNB-19 CNS; > 100 µM and 67.2 µM in the assay with HCT-15 colon; 19.6 µM and 45.4 µM in the assay with MCF7 breast; 46.3 µM in the assay on HCC-2998 colon. The GI50 in the assay on RXF 393 renal was 11.8 µM; in the assay on SF-295 CNS, 6.73 µM; in the assay with SNB-19 CNS it was 18.2 µM; in the assay on HCT-15 colon it was 12 µM; with MCF7 breast, 4.34 µM.
With `C[C@@H](NC(=O)c1ncnc(N)c1Cl)c1ncc(C(=O)Nc2cc(C(F)(F)F)c(Cl)cn2)s1`, the GI50 in the assay with 786-0 renal was 36.3 µM; with A549 NSCLC, 18 µM; with RXF 393 renal, 24.2 µM; in the assay on A498 renal, 7.94 µM; with SF-295 CNS, 13.6 µM; with HL-60(TB) leukemia it was 3.3 µM. Also, the GI50 is 26.6 µM with SNB-19 CNS, 21.9 µM in the assay on HCT-15 colon, 19.9 µM with MCF7 breast and 13.7 µM with HCC-2998 colon. Besides, the TGI is greater than 100 µM in the assay with 786-0 renal; 64.4 µM in the assay with A549 NSCLC; 68.7 µM in the assay with RXF 393 renal; 24.7 µM with A498 renal; 34.7 µM with SF-295 CNS; 29 µM with HL-60(TB) leukemia. The TGI in the assay with SNB-19 CNS was greater than 100 µM; with HCT-15 colon, greater than 100 µM; with MCF7 breast it was 66.1 µM; in the assay on HCC-2998 colon, 40.7 µM.
As to `NC1=NC(=O)/C(=C/c2ccc3ncccc3c2)S1`, the GI50 is greater than 25 µM in the assay with 786-0 renal; greater than 25 µM with A549 NSCLC; greater than 25 µM with RXF 393 renal; greater than 17.3 µM in the assay with A498 renal; greater than 25 µM in the assay on SF-295 CNS; greater than 25 µM in the assay with HL-60(TB) leukemia. In addition, the GI50 with SNB-19 CNS was greater than 25 µM; in the assay with HCT-15 colon, greater than 25 µM; in the assay on MCF7 breast it was greater than 12.2 µM; in the assay with HCC-2998 colon, greater than 25 µM. Besides, the TGI in the assay on 786-0 renal, in the assay on A549 NSCLC, in the assay on RXF 393 renal, in the assay on A498 renal, in the assay on SF-295 CNS and with HL-60(TB) leukemia was greater than 25 µM each time. For the same compound, the TGI with SNB-19 CNS, in the assay on HCT-15 colon, in the assay with MCF7 breast and with HCC-2998 colon was greater than 25 µM each time.
With `Cc1ccc(NC(=O)Nc2c(Cl)cccc2Cl)cn1`, the GI50 was 61.2 µM in the assay on 786-0 renal; 8.51 µM with A549 NSCLC; 5.85 µM with RXF 393 renal; 12.1 µM with A498 renal; 5.49 µM in the assay on SF-295 CNS; 4.23 µM with HL-60(TB) leukemia. The GI50 in the assay with SNB-19 CNS was 26.1 µM; in the assay on HCT-15 colon, 5.61 µM; in the assay on MCF7 breast, 7.29 µM; in the assay with HCC-2998 colon it was 28 µM. The concentration for total growth inhibition (TGI) with 786-0 renal is greater than 100 µM; in the assay with A549 NSCLC, 43 µM; with RXF 393 renal, 30.9 µM; in the assay with A498 renal, greater than 100 µM; with SF-295 CNS, greater than 100 µM; with HL-60(TB) leukemia, 29.7 µM. Moreover, the TGI in the assay with SNB-19 CNS, with HCT-15 colon, in the assay on MCF7 breast and in the assay on HCC-2998 colon was greater than 100 µM in each case.
Turning to `O=c1ccc(=O)n(-c2ccccc2)[nH]1`, the total growth inhibition concentration (TGI) in the assay with 786-0 renal, in the assay with A549 NSCLC, in the assay with RXF 393 renal, in the assay with A498 renal, in the assay with SF-295 CNS and in the assay with HL-60(TB) leukemia was greater than 100 µM throughout. For the same compound, the TGI in the assay on SNB-19 CNS, in the assay with HCT-15 colon, with MCF7 breast and with HCC-2998 colon was greater than 100 µM each time.
On to `CN(C)Cc1ccc(C(C)(C)C)cc1-c1cc(C(C)(C)C)ccc1CN(C)C`, for which the TGI with 786-0 renal, in the assay on A549 NSCLC, in the assay with RXF 393 renal, in the assay with A498 renal, with SF-295 CNS and with HL-60(TB) leukemia was greater than 100 µM in each case. The TGI was greater than 100 µM with SNB-19 CNS, greater than 100 µM with HCT-15 colon, greater than 100 µM in the assay with MCF7 breast and 30.2 µM with HCC-2998 colon.
As to `CCOc1ccc2c(c1)CN(Cc1ccc(Cl)cc1)CO2`, the GI50 was 14.8 µM in the assay on 786-0 renal; 35.1 µM in the assay on A549 NSCLC; 13.8 µM with RXF 393 renal; 2.09 µM with A498 renal; 13 µM with SF-295 CNS; 19.2 µM in the assay on HL-60(TB) leukemia. The GI50 with SNB-19 CNS was 24.6 µM; in the assay on HCT-15 colon, 16.5 µM; in the assay on MCF7 breast, 16.4 µM; in the assay on HCC-2998 colon, 18.7 µM. Also, the TGI with 786-0 renal is 30.1 µM; in the assay on A549 NSCLC, greater than 100 µM; in the assay on RXF 393 renal, 29.3 µM; in the assay on A498 renal, 19.2 µM; in the assay on SF-295 CNS, 27.9 µM; in the assay with HL-60(TB) leukemia, 42.8 µM. Moreover, the TGI was greater than 100 µM in the assay on SNB-19 CNS, 34.1 µM in the assay on HCT-15 colon, 35.2 µM in the assay on MCF7 breast and 35 µM with HCC-2998 colon.
Turning to `CC(c1ccccc1)[C@@H](C(=O)Nc1ccc(I)cc1F)N1C(=O)N[C@H](c2ccc(OC[C@H](O)CO)cc2)C1=O` (stereo not given in full), the GI50 is greater than 14.4 µM in the assay with 786-0 renal; greater than 14.3 µM in the assay on A549 NSCLC; 4.2 µM in the assay with RXF 393 renal; 0.541 µM in the assay on A498 renal; greater than 25 µM with SF-295 CNS; 0.313 µM in the assay on HL-60(TB) leukemia. The GI50 with SNB-19 CNS is 6.63 µM; in the assay on HCT-15 colon, 11.4 µM; in the assay on MCF7 breast, greater than 15 µM; in the assay on HCC-2998 colon, 0.445 µM. In addition, the TGI was greater than 25 µM in the assay on 786-0 renal; greater than 25 µM with A549 NSCLC; greater than 22.6 µM with RXF 393 renal; 2.3 µM in the assay with A498 renal; greater than 25 µM in the assay with SF-295 CNS; greater than 25 µM in the assay with HL-60(TB) leukemia. For the same compound, the concentration for total growth inhibition (TGI) in the assay on SNB-19 CNS, in the assay with HCT-15 colon, with MCF7 breast and with HCC-2998 colon was greater than 25 µM each time.
With `C/C(=N/O)c1ccc2c(c1)/C(=N/O)c1ccccc1-2`, the GI50 in the assay with 786-0 renal was 20.5 µM; in the assay on A549 NSCLC it was 24 µM; in the assay with RXF 393 renal, 21.3 µM; in the assay with A498 renal, 34.9 µM; with SF-295 CNS, 22.6 µM; in the assay with HL-60(TB) leukemia, 15.8 µM. Further, the GI50 was 33.8 µM with SNB-19 CNS, 17.1 µM with HCT-15 colon, 15.3 µM in the assay with MCF7 breast and 20.3 µM in the assay with HCC-2998 colon. In addition, the TGI in the assay on 786-0 renal was 38.5 µM; in the assay with A549 NSCLC, 62.9 µM; with RXF 393 renal, 44.8 µM; in the assay with A498 renal, greater than 100 µM; in the assay with SF-295 CNS, 50.4 µM; with HL-60(TB) leukemia it was 35.7 µM. The TGI was greater than 100 µM in the assay on SNB-19 CNS, 33.7 µM in the assay with HCT-15 colon, 35.8 µM in the assay with MCF7 breast and 35.9 µM with HCC-2998 colon.
On to `CCN(CC)CCC(CNc1ccnc2cc(Cl)ccc12)c1ccccc1` (stereo not given), for which the GI50 in the assay with 786-0 renal was 3.69 µM; with A549 NSCLC it was 11.6 µM; in the assay on RXF 393 renal, 2.3 µM; with A498 renal, 2.41 µM; with SF-295 CNS, 1.83 µM; with HL-60(TB) leukemia, 4.22 µM. For the same compound, the GI50 in the assay on SNB-19 CNS was 16.2 µM; with HCT-15 colon it was 3.51 µM; in the assay on MCF7 breast, 4.75 µM; with HCC-2998 colon, 2.09 µM. Moreover, the TGI in the assay with 786-0 renal was 13.5 µM; in the assay on A549 NSCLC, 26.3 µM; in the assay on RXF 393 renal, 5.65 µM; with A498 renal it was 13 µM; with SF-295 CNS it was 4.79 µM; in the assay with HL-60(TB) leukemia, 29.2 µM. For the same compound, the TGI with SNB-19 CNS is 74.1 µM; in the assay with HCT-15 colon it was 20.8 µM; in the assay with MCF7 breast, 18 µM; in the assay on HCC-2998 colon, 6.6 µM.
